According to publication PMC11256326, “Discovery of Heparin Mimetic, Potent, and Selective Inhibitors of Human Clotting Factor XIIIa” (ACS Omega, 2024):

Target: T1, FXIIIa (Homo sapiens, UniProt P00488)
T1 construct: purchased Haematologic Technologies; host or cells: human plasma
T1 sequence (P00488 39-732 limits assumed): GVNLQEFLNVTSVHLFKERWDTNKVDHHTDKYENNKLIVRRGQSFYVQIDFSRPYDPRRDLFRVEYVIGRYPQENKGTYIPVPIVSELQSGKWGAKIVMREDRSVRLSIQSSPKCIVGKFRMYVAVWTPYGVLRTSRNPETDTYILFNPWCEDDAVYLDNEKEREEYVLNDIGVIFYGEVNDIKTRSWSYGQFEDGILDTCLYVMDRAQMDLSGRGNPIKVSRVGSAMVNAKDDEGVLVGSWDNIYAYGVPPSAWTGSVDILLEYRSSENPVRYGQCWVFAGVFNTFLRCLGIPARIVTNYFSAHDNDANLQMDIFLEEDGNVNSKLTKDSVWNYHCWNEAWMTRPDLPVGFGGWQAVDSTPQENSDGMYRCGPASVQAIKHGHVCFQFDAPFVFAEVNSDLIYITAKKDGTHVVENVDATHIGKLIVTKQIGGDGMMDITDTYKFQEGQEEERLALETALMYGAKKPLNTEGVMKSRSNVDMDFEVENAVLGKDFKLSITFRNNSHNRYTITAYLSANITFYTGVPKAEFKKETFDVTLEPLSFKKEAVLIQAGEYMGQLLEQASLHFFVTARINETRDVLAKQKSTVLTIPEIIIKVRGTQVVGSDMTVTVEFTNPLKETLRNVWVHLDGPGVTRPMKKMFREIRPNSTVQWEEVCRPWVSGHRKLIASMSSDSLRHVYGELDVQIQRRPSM
Assay: bisubstrate, fluorescence-based trans-glutamination assay
Assay type: biochemical
Conditions: for HS (Hill slope), FXIIIa inhibition: logistic fit eq 1; for IC50: pH 7.4, 37 °C, substrates dansylcadaverine and N,N-dimethylcasein
Source text: A series of 27 sulfonated molecules (Figure 3) was screened for inhibition of human FXIIIa using a modified bisubstrate, fluorescence-based trans-glutamination assay, as described earlier.[36],[49] Dansylcadaverine and N,N-dimethylcasein were used as two substrates, which upon FXIIIa-dependence conjugation show a marked increase in fluorescence at 550 nm (λEX = 360 nm). The sulfonated molecules were structurally diverse given their number of anionic groups (mono- (inhibitors 24–27) to octa- (inhibitor 9)), number of building blocks (monomeric (molecules 26–29) to […] (inhibitor 14)), and the nature of the building block of oligomeric derivatives (benzamide derivatives (inhibitors 3–10, 24, and 25), triazine derivatives (inhibitors 11–14), and azo-naphthalene derivatives (molecules 15–22), and ureido-naphthalene derivative (23)) (Figure 3).
To measure the potency and efficacy of these inhibitors, the dose-dependence of FXIIIa inhibition was evaluated using logistic eq 1 (Table 1). The potency of inhibition refers to the IC50 (x-axis), whereas the efficacy refers to the net change in residual FXIIIa activity (ΔY%) (y-axis). Iodoacetamide, a nonselective inhibitor of thiol-containing enzymes, was used as a positive control.
To evaluate the effect of sulfonated molecules on human FXIIIa, a bisubstrate, fluorescence-based trans-glutamination assay was performed as we reported previously.[36],[49] Generally, 1 μL of the sulfonated molecule was diluted with 87 μL of pH 7.4 buffer (50 mM Tris-HCl, 1 mM CaCl2, 100 mM NaCl, and 2 mg/mL N,N-dimethylcasein) and 5 μL dithiothreitol (20 mM) at 37 °C followed by the addition of 2 μL of human FXIIIa (0.3 μM) and incubation for 10 min. The activity of FXIIIa was monitored following the addition of 5 μL of dansylcadaverine (2 mM) by measuring the initial rate of increase in fluorescence emission (λEx. = 360 nm and λEm. = 550 nm). Relative residual FXIIIa activity at each concentration of the inhibitor was calculated from the ratio of FXIIIa activity in the presence and absence of the inhibitor. Logistic eq 1 was used to fit the concentration dependence of residual FXIIIa activity to obtain the potency (IC50) and efficacy (ΔY%) of inhibition. [drawing 1] 1
This equation defines Y as the ratio of residual FXIIIa activity with the inhibitor present compared to its absence. YM represents the maximum possible value of residual FXIIIa activity, while YO denotes the minimum possible value. IC50 signifies the concentration of the inhibitor causing 50% enzyme activity inhibition, and HS represents the Hill slope. Determination of YM, YO, IC50, and HS values is achieved through nonlinear curve fitting of the experimental data.

HS (Hill slope), FXIIIa inhibition	Compound	IC50 [µM]
1.1 ± 0.1	Nc1c(/N=N/c2ccc(Nc3nc(Cl)nc(Nc4cccc(S(=O)(=O)O)c4)n3)cc2S(=O)(=O)O)c(S(=O)(=O)O)cc2c(O)c(/N=N/c3ccc(Nc4nc(Cl)nc(Nc5cccc(S(=O)(=O)O)c5)n4)cc3S(=O)(=O)O)ccc12 [compound 14]	5.1 ± 0.3
1.5 ± 0.6	Cc1cc(-c2ccc(/N=N/c3ccc4c(S(=O)(=O)O)cc(S(=O)(=O)O)c(N)c4c3O)c(C)c2)ccc1/N=N/c1ccc2c(S(=O)(=O)O)cc(S(=O)(=O)O)c(N)c2c1O [compound 18]	

Second part, the molecule before the results:

Compound	HS (Hill slope), FXIIIa inhibition	IC50 [µM]
Nc1c(S(=O)(=O)O)cc(Nc2ccc(Nc3nc(Cl)nc(Nc4ccccc4S(=O)(=O)O)n3)c(S(=O)(=O)O)c2)c2c1C(=O)c1ccccc1C2=O [compound 13]	0.7 ± 0.03	3.1 ± 0.3
COc1cc(-c2ccc(/N=N/c3ccc4c(S(=O)(=O)O)cc(S(=O)(=O)O)c(N)c4c3O)c(OC)c2)ccc1/N=N/c1ccc2c(S(=O)(=O)O)cc(S(=O)(=O)O)c(N)c2c1O [compound 19]	1.4 ± 0.4	13.9 ± 2.6
Nc1c(/N=N/c2ccc(S(=O)(=O)CCOS(=O)(=O)O)cc2)c(S(=O)(=O)O)cc2cc(S(=O)(=O)O)c(/N=N/c3ccc(S(=O)(=O)CCOS(=O)(=O)O)cc3)c(O)c12 [compound 16]	0.8 ± 0.1	2.4 ± 0.5
